Reference: the NIST ThermoML archive (doi:10.1016/j.jct.2005.01.017)

Test: xn = mol fraction of the nth substance listed
Conditions: 101 kPa, Liquid

CC1COC(=O)O1 (configuration not stated) [4-methyl-1,3-dioxolan-2-one] + Cc1ccc(C)cc1
Conditions | mass density [kg/m3]
293.15 K, x2 = 0 | 1200.25
293.15 K, x2 = 0.0487 | 1177.59
293.15 K, x2 = 0.1238 | 1144.26
293.15 K, x2 = 0.1793 | 1120.81
293.15 K, x2 = 0.2482 | 1093.01
293.15 K, x2 = 0.3125 | 1068.33
293.15 K, x2 = 0.381 | 1043.26
293.15 K, x2 = 0.4371 | 1023.64
293.15 K, x2 = 0.4972 | 1003.44
293.15 K, x2 = 0.5622 | 982.49
293.15 K, x2 = 0.6329 | 960.71
293.15 K, x2 = 0.6938 | 942.7
293.15 K, x2 = 0.7421 | 928.88
293.15 K, x2 = 0.8023 | 912.2
293.15 K, x2 = 0.8592 | 896.93
293.15 K, x2 = 0.9247 | 879.91
303.15 K, x2 = 0 | 1180.56
303.15 K, x2 = 0.0523 | 1157.1
303.15 K, x2 = 0.123 | 1126.84
303.15 K, x2 = 0.1836 | 1102.14
303.15 K, x2 = 0.2381 | 1080.85
303.15 K, x2 = 0.3263 | 1048.15
303.15 K, x2 = 0.3741 | 1031.29
303.15 K, x2 = 0.4233 | 1014.5
303.15 K, x2 = 0.4794 | 996.06
303.15 K, x2 = 0.5573 | 971.57
303.15 K, x2 = 0.6233 | 951.77
303.15 K, x2 = 0.6843 | 934.2
303.15 K, x2 = 0.7538 | 914.94
303.15 K, x2 = 0.8148 | 898.66
303.15 K, x2 = 0.8731 | 883.59
303.15 K, x2 = 0.9362 | 867.79
313.15 K, x2 = 0 | 1161.28
313.15 K, x2 = 0.0543 | 1137.8
313.15 K, x2 = 0.1173 | 1111.72
313.15 K, x2 = 0.1598 | 1094.8
313.15 K, x2 = 0.2294 | 1068.21
313.15 K, x2 = 0.2849 | 1047.95
313.15 K, x2 = 0.3598 | 1021.87
313.15 K, x2 = 0.4381 | 996.03
313.15 K, x2 = 0.482 | 982.14
313.15 K, x2 = 0.5359 | 965.64
313.15 K, x2 = 0.6021 | 946.14
313.15 K, x2 = 0.6721 | 926.39
313.15 K, x2 = 0.7359 | 909.11
313.15 K, x2 = 0.8243 | 886.17
313.15 K, x2 = 0.8817 | 871.85
313.15 K, x2 = 0.9274 | 860.74
323.15 K, x2 = 0 | 1142.43
323.15 K, x2 = 0.0623 | 1116.49
323.15 K, x2 = 0.1246 | 1091.71
323.15 K, x2 = 0.1822 | 1069.79
323.15 K, x2 = 0.2483 | 1045.74
323.15 K, x2 = 0.3193 | 1021.16
323.15 K, x2 = 0.3719 | 1003.72
323.15 K, x2 = 0.4389 | 982.42
323.15 K, x2 = 0.5032 | 962.87
323.15 K, x2 = 0.5579 | 946.88
323.15 K, x2 = 0.6234 | 928.45
323.15 K, x2 = 0.6972 | 908.56
323.15 K, x2 = 0.7529 | 894.11
323.15 K, x2 = 0.8137 | 878.84
323.15 K, x2 = 0.8724 | 864.57
323.15 K, x2 = 0.9378 | 849.15
333.15 K, x2 = 0 | 1123.99
333.15 K, x2 = 0.0598 | 1099.91
333.15 K, x2 = 0.1387 | 1069.71
333.15 K, x2 = 0.1738 | 1056.82
333.15 K, x2 = 0.2384 | 1033.93
333.15 K, x2 = 0.3283 | 1003.8
333.15 K, x2 = 0.3918 | 983.64
333.15 K, x2 = 0.452 | 965.32
333.15 K, x2 = 0.5138 | 947.26
333.15 K, x2 = 0.5821 | 928.14
333.15 K, x2 = 0.6518 | 909.44
333.15 K, x2 = 0.7139 | 893.44
333.15 K, x2 = 0.783 | 876.29
333.15 K, x2 = 0.8346 | 863.9
333.15 K, x2 = 0.8814 | 852.95
333.15 K, x2 = 0.9471 | 837.99
343.15 K, x2 = 0 | 1105.98
343.15 K, x2 = 0.0643 | 1081
343.15 K, x2 = 0.1241 | 1058.78
343.15 K, x2 = 0.1839 | 1037.51
343.15 K, x2 = 0.245 | 1016.69
343.15 K, x2 = 0.3183 | 992.89
343.15 K, x2 = 0.3891 | 971.03
343.15 K, x2 = 0.4498 | 953.11
343.15 K, x2 = 0.5021 | 938.24
343.15 K, x2 = 0.5721 | 919.11
343.15 K, x2 = 0.6592 | 896.46
343.15 K, x2 = 0.7134 | 882.94
343.15 K, x2 = 0.7635 | 870.82
343.15 K, x2 = 0.8247 | 856.45
343.15 K, x2 = 0.8848 | 842.78
343.15 K, x2 = 0.9522 | 827.92
353.15 K, x2 = 0 | 1088.38
353.15 K, x2 = 0.0505 | 1069.32
353.15 K, x2 = 0.1184 | 1044.77
353.15 K, x2 = 0.1739 | 1025.56
353.15 K, x2 = 0.2289 | 1007.26
353.15 K, x2 = 0.2847 | 989.41
353.15 K, x2 = 0.3571 | 967.26
353.15 K, x2 = 0.4248 | 947.53
353.15 K, x2 = 0.4972 | 927.39
353.15 K, x2 = 0.5539 | 912.26
353.15 K, x2 = 0.6198 | 895.34
353.15 K, x2 = 0.674 | 881.93
353.15 K, x2 = 0.7354 | 867.23
353.15 K, x2 = 0.7842 | 855.91
353.15 K, x2 = 0.8527 | 840.5
353.15 K, x2 = 0.9247 | 824.87
